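Exposure lasted 48 hours, with cells grown in 96-well plates and compounds tested at five concentrations. GI50 marks 50% less growth. TGI: concentration producing complete growth inhibition.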
Tests used:
Experiment in all cases: inhibition of tumour cell growth, NCI panel, 48 h
PC-3 prostate = tested on: PC-3 prostate
UACC-257 melanoma = tested on: UACC-257 melanoma
786-0 renal = tested on: 786-0 renal
SK-MEL-5 melanoma = tested on: SK-MEL-5 melanoma
U251 CNS = tested on: U251 CNS
A498 renal = tested on: A498 renal
HT29 colon = tested on: HT29 colon
UO-31 renal = tested on: UO-31 renal
LOX IMVI melanoma = tested on: LOX IMVI melanoma
KM12 colon = tested on: KM12 colon

SMILES	GI50 (PC-3 prostate) [nM]	TGI (PC-3 prostate) [nM]	GI50 (UACC-257 melanoma) [nM]	TGI (UACC-257 melanoma) [nM]	GI50 (786-0 renal) [nM]	TGI (786-0 renal) [nM]	GI50 (SK-MEL-5 melanoma) [nM]	TGI (SK-MEL-5 melanoma) [nM]	GI50 (U251 CNS) [nM]	TGI (U251 CNS) [nM]	GI50 (A498 renal) [nM]	TGI (A498 renal) [nM]	GI50 (HT29 colon) [nM]	TGI (HT29 colon) [nM]	GI50 (UO-31 renal) [nM]	TGI (UO-31 renal) [nM]	GI50 (LOX IMVI melanoma) [nM]	TGI (LOX IMVI melanoma) [nM]	GI50 (KM12 colon) [nM]	TGI (KM12 colon) [nM]
O=C1C(Cl)=C(Nc2ccc(Nc3ccccc3)c(NC3=C(Cl)C(=O)c4ccccc4C3=O)c2)C(=O)c2ccccc21	3630	24800	6120	33700	15200	46500	13100	32000	2320	7220	875	14400	16100	> 100000	1350	7710	4120	> 100000	–	–
Cc1ccc2oc(=O)cc(/C(=C3/C=CC=N3)c3ccc[nH]3)c2c1	274	1540	711	4060	279	892	356	1290	319	1570	269	920	349	1420	450	5110	343	1410	344	1710
CC1=CC(C)=NN=C(N)N1S(=O)(=O)c1cc(C)c(Cl)cc1SCc1ccccc1	6150	> 100000	37600	> 100000	73400	> 100000	40700	> 100000	16800	> 100000	> 100000	> 100000	24500	> 100000	5180	> 100000	58400	> 100000	34600	> 100000
CCCCC(CCCCCC(CCCC)NCc1ccc2c(c1)OCO2)NCc1ccc2c(c1)OCO2 (stereo unspecified)	1010	2530	199	378	1250	2530	758	2000	207	438	1490	2830	262	687	481	1160	220	581	232	510
O=C(CC1(O)C(=O)N(Cc2ccccc2)c2ccc(Cl)cc21)c1ccc(C(=O)NCC2CCC3(CC2)OOC2(CCCCC2)OO3)cc1 (stereo unspecified)	1330	9110	8610	> 100000	192	367	1890	4560	211	426	1770	4130	236	544	134	289	57.3	197	268	782
CCN1CCC(Nc2ccnc3cc(Cl)ccc23)CC1	24900	> 100000	17000	32300	32400	> 100000	16000	30200	30500	> 100000	74600	> 100000	–	–	9060	29000	26100	> 100000	25200	> 100000
